The values below come from patent US20240335445A1, “Compounds and Compositions for Treating Fibrosis” (YALE UNIVERSITY, priority 2017, published 2024).

A value given as a limit tells only on which side of the number the result lay.

Type in all cases: biochemical
The target in experiment [1] is T1, MKP5 (Homo sapiens, UniProt Q9Y6W6).
T1 sequence (Q9Y6W6 1-482): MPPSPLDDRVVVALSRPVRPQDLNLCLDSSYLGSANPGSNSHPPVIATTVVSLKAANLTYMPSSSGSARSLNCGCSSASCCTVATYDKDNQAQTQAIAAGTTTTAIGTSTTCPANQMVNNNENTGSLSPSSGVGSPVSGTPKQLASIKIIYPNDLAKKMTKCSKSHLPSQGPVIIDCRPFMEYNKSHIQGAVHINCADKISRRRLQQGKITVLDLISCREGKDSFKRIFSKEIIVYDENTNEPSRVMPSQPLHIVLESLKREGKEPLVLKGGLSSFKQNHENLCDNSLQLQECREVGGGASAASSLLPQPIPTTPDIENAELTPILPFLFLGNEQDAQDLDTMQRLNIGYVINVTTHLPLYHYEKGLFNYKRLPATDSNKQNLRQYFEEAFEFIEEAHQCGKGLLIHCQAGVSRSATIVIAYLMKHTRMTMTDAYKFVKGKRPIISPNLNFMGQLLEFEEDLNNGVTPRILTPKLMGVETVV
Briefly: MKP5 pNPP assay.

Experiment [2] has as its target T1, MKP5. Description: MKP5 EZReader assay with fluorescent mono-phosphorylated peptides.
In experiment [3] the target is T1, MKP5. Description: MKP-5 Malachite Green phosphate assay with dual phosphorylated peptide pTpY. The settings on record: for inhibition at 12.5 µM: read-out: % inhibition of MKP-5. From the text: In a non-limiting example, the assay comprises contacting a peptide comprising the sequence pThr-Gly-pTyr, the polypeptide comprising and/or consisting of the catalytic domain of MKP-5 (such as but not limited to residues 305-482 of SEQ ID NO:4), or an active fragment thereof, and the test compound. If the test compound is a MKP-5 inhibitor, it will inhibit the dephosphorylation of the peptide comprising the sequence pThr-Gly-pTyr. If the test compound is not a MKP-5 inhibitor, it will not inhibit the dephosphorylation of the peptide comprising the sequence pThr-Gly-pTyr. Dephosphorylation of that peptide can be evaluated qualitatively and/or quantitatively using any methods known in the art, such as but not limited to a Malachite Green Phosphate Assay. This assay provides a fast, reproducible, colorimetric method for measuring inorganic free phosphate in aqueous solutions. The assay method is based on the formation of a complex between malachite green molybdate and free orthophosphate that absorbs at 620-640 nm. This assay is a reliable and suitable means of detecting and quantifying minimal amounts of inorganic free phosphate and is amenable to high-throughput screening applications.
Compounds from the pilot collection consisting of Microsource GenPlus, Microsource Natural Product, NIH Clinical collections, ChemBridge DIVERSet, ChemBridge MicroFormats, Maybridge Diversity, and ChemBridge Amines and Alcohols were screened. Assay conditions were 1.5 μM MKP-5 and 25 μM dual phosphorylated peptide DDE (Nle) (pT) G (pY) VATR (10 μL total volume), incubated for 30 minutes at 37° C. followed by addition of 40 μL Malachite Green reagent. Z′ values are ˜0.7-0.8. Malachite green reagent was made by combining 30 mL 0.045% Malachite Green (Sigma #M-9636) with 20 mL 4.2% ammonium molybdate in 4 M HCl, shaking for at least 30 mins and adding 0.01% Tween 20.

In experiment [4] the target is T1, MKP5. Briefly: MKP-5 inhibition, assay not specified. The note with it: read-out: IC50 against MKP-5.
The mark [5] stands for this setting: Kd (M) MKP5 EZREader fluor pT_Y, substrate fluor pT_Y (SEQ ID NO: 2).
Where [6] appears, read: Kd (M) MKP5 EZReader fluor_TpY, substrate fluor_TpY (SEQ ID NO: 1).

In general, Kd refers to the constant that tells how readily two partners part at equilibrium. A low value points to tighter binding. Broadly, the IC50 is the concentration that inhibits the measured activity by half. For `CSc1scc2c1-c1nc(SCC(=O)C(C)(C)C)ncc1CC2` [YU032149, 3,3-dimethyl-1-((9-(methylthio)-5,6-dihydrothieno[3,4-h]quinazolin-2-yl)thio)butan-2-one], the Kd on MKP5 [1] was determined as 4.23 µM; at MKP5 [2] (setting [5]), 1.13e-05 M; on MKP5 [2] (setting [6]) it was 1.75e-05 M; on MKP5 [3] it was 6.25 µM. The IC50 at MKP5 [4] was approximately 12 µM.

`O=c1cc2oc3cc(O)c(O)cc3c(-c3ccc([N+](=O)[O-])o3)c-2cc1O` [YU109017]: the dissociation constant (Kd) was more than 100 µM at MKP5 [1], 1.56e-05 M at MKP5 [2] (setting [5]), 1.03e-05 M on MKP5 [2] (setting [6]) and more than 100 µM on MKP5 [3].

For `O=C(O)c1ccc(C2Nc3c(-c4ccccc4)cccc3C3C=CCC32)cc1` (centres unmarked) [YU119284], the Kd on MKP5 [1] is more than 200 µM; at MKP5 [2] (setting [5]), more than 0.0002 M; at MKP5 [2] (setting [6]), more than 0.0002 M; at MKP5 [3], more than 100 µM.

Take `Cc1ccc(C)n1-c1ccc(C(=O)O)c(O)c1` [YU129641]: the Kd was more than 200 µM on MKP5 [1], 1.41e-05 M on MKP5 [2] (setting [5]), 1.04e-05 M at MKP5 [2] (setting [6]) and more than 100 µM at MKP5 [3].

One may read the inhibition as the percentage by which the read-out fell short of the control. Consider `CC(C)(C)C(=O)CSc1ncc2cnc3ccccc3c2n1` [YU241658], for which the inhibition at 12.5 µM at MKP5 [3] is 15%.

In the case of `CC(=O)N1Cc2cnc(SCC(=O)C(C)(C)C)nc2-c2ccccc21` [YU241659], at MKP5 [3], the inhibition at 12.5 µM is 12%.

For the molecule `CC(C)(C)C(=O)CSc1ncc2c(n1)-c1ccsc1CC2` [YU252252], the inhibition at 12.5 µM at MKP5 [3] is 37%.
